Assay results published in ChEMBL document CHEMBL3400009, “A FRET-based assay for screening SIRT5 specific modulators” (Bioorg Med Chem Lett, 2015).
Calls of active or inactive are those of the source. No cut-off for these calls is given here.

Legend:
[1] = biological target: T1, NAD-dependent protein deacylase sirtuin-5, mitochondrial (Homo sapiens, UniProt Q9NXA8); assay: Inhibition of human SIRT5 assessed as reduction in desuccinylase activity using KQTAR(SuK)STGGKA substrate
Target sequence in this assay (Q9NXA8 whole entry): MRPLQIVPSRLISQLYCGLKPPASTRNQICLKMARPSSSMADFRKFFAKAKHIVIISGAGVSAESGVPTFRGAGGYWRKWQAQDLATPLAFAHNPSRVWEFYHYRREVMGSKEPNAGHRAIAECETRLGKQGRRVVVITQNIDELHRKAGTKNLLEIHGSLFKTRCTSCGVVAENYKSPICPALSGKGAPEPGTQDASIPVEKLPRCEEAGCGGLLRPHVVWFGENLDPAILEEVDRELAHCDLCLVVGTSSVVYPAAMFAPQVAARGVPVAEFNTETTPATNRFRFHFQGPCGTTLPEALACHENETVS

[2] = biological target: T1, NAD-dependent protein deacylase sirtuin-5, mitochondrial; assay: Inhibition of SIRT5 (unknown origin) at 30 uM using (DABCYL)ISGASE(SuK)DIVHSE(EDANS)G peptide substrate incubated for 1 hrs followed by 1 hr incubation with trypsin and nicotinamide by FRET-based assay
Target sequence in this assay (Q9NXA8 37-310 limits assumed): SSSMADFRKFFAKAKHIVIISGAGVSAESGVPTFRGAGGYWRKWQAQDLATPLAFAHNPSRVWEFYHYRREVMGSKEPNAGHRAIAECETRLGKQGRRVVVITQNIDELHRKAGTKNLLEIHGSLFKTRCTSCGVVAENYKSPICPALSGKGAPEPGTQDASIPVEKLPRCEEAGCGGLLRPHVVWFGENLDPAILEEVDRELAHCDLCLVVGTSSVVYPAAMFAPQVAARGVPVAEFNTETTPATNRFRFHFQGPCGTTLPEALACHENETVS

Row | Compound | IC50 [1] [µM] | inhibition [2]
1 | N#C/C(=C\c1ccc(-c2cc(Cl)ccc2Cl)o1)C(=O)Nc1cccc2ncccc12 | > 100 | inactive
2 | Cc1ccc(C(=O)Nc2ccc(S(=O)(=O)O)c3cc(S(=O)(=O)O)cc(S(=O)(=O)O)c23)cc1NC(=O)c1cccc(NC(=O)Nc2cccc(C(=O)Nc3cc(C(=O)Nc4ccc(S(=O)(=O)O)c5cc(S(=O)(=O)O)cc(S(=O)(=O)O)c45)ccc3C)c2)c1 |  | Active
3 | NC(=O)c1cccnc1 |  | inactive
4 | CC(NC(=O)c1ccccc1/N=C/c1c(O)ccc2ccccc12)c1ccccc1 (stereo not drawn) [SIRTINOL] | > 100 | inactive
5 | O=C1CCc2c(ccc3ccccc23)O1 [SPLITOMICIN] | > 100 | inactive
